Data on 15 molecules can be found in ChEMBL document CHEMBL3232786, “Therapeutic utility of cannabinoid receptor type 2 (CB(2)) selective agonists” (J Med Chem, 2013).

Data set [1] can be described thus: AUC (0 to infinity) in Sprague-Dawley rat at 10 mg/kg, po by UV-HPLC analysis. Set-up: time infinity, dose 10 mg/kg, route oral. The conditions noted are these: plasma. The class given is ADME, organism-based.
Data set [2] is described as follows: Cmax in Sprague-Dawley rat at 10 mg/kg, po by UV-HPLC analysis. In kind it is ADME, organism-based. More on the design: dose 10 mg/kg, route oral. The conditions noted are these: in vivo.
Data set [3] in a line: Half life in Sprague-Dawley rat at 10 mg/kg, po by UV-HPLC analysis. The class given is ADME, organism-based. Set-up: dose 10 mg/kg, route oral. The conditions noted are these: in vivo.
Data set [4] has as its target T1, Cannabinoid receptor 2 (Homo sapiens, UniProt P34972). Description: Displacement of [3H]Win55212-2 from human CB2 receptor expressed in CHO-K1 cells by liquid scintillation counting. The class given is cell-based. A general note: Loss of bound radioactivity is the signal in a displacement assay; it reports binding, not function.
Data set [5] concerns the target T2, Cannabinoid receptor 1 (Homo sapiens, UniProt P21554). Description: Displacement of [3H]-CP55940 from human CB1 receptor expressed in CHO-K1 cells by liquid scintillation counting. In kind it is cell-based. The conditions noted are these: read-out: EC50 (the source's name).
Data set [6] concerns the target T3, Cannabinoid receptor 1 (Rattus norvegicus, UniProt P20272). The experiment in a line: Displacement of [3H]SR141716A from rat brain CB1 receptor by liquid scintillation spectrophotometry.
A short description of data set [7]: Selectivity ratio of Ki for rat CB1 receptor to Ki for human CB2 receptor.
Data set [8] concerns the target T1, Cannabinoid receptor 2. Description: Binding affinity to human CB2 receptor.
Data set [9] deals with T3, Cannabinoid receptor 1. Description: Binding affinity to rat CB1 receptor.
For data set [10], the species on record is Homo sapiens. The experiment in a line: Selectivity ratio of Ki for human CB1 receptor to Ki for human CB2 receptor.
Data set [11] concerns the target T1, Cannabinoid receptor 2. The experiment in a line: Displacement of [3H]-CP55940 from human CB2 receptor transfected in CHO cells after 30 mins by liquid scintillation spectrometry. The class given is cell-based.
For data set [12], the target named is T2, Cannabinoid receptor 1. Description: Displacement of [3H]-CP55940 from human CB1 receptor transfected in CHO cells after 30 mins by liquid scintillation spectrometry. The class given is cell-based.
Data set [13] deals with T4, Cannabinoid receptor 2 (Rattus norvegicus, UniProt Q9QZN9).
T4 sequence (Q9QZN9 whole entry): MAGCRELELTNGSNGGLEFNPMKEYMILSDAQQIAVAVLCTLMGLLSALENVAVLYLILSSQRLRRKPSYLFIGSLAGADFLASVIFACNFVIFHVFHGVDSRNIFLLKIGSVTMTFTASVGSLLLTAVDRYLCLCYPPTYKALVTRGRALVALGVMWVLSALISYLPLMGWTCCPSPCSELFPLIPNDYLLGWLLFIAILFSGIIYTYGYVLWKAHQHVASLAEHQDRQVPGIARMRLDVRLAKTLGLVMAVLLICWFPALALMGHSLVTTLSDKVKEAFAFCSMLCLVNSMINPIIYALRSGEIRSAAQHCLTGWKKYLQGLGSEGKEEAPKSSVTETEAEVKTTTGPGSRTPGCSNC
Description: Displacement of [3H]-CP55940 from CB2 receptor of rat spleen membranes by liquid scintillation counting in presence of serine protease inhibitor PMSF. The class given is tissue-based, Membrane.

The species entered for data set [14] is Rattus norvegicus. The experiment in a line: Selectivity ratio of Ki for CB2 receptor of rat spleen membranes to Ki for CB1 receptor of rat cerebellar membranes. The class given is tissue-based.
In data set [15] the target is T3, Cannabinoid receptor 1. The experiment in a line: Displacement of [3H]-CP55940 from CB1 receptor of rat cerebellar membranes by liquid scintillation counting in presence of serine protease inhibitor PMSF. Set-up: species or system Cerebellum, Membrane.
Data set [16] deals with T1, Cannabinoid receptor 2. Description: Agonist activity at human CB2 receptor expressed in human SK-N-MC cells by CRE-beta galactosidase reporter gene assay. In kind it is functional, cell-based. A general note: Reporter assays use an easily measured gene product as a stand-in for the process of interest.
The target of data set [17] is T2, Cannabinoid receptor 1. Description: Agonist activity at human CB1 receptor expressed in human SK-N-MC cells by CRE-beta galactosidase reporter gene assay. The class given is functional, cell-based.
In data set [18] the target is T1, Cannabinoid receptor 2. The experiment in a line: Displacement of [3H]-CP55940 from human CB2 receptor expressed in CHO cells by liquid scintillation counting. The class given is cell-based.
Data set [19] addresses T2, Cannabinoid receptor 1. Description: Displacement of [3H]-CP55940 from human CB1 receptor by liquid scintillation counting.
Data set [20] is filed under the species Homo sapiens. Description: Selectivity ratio of Ki for CB1 human receptor to Ki for human CB2 receptor.
In data set [21] the target is T2, Cannabinoid receptor 1. Description: Agonist activity at human CB1 receptor transfected in CHO-K1 cells assessed as cAMP change. In kind it is functional, cell-based.
The species entered for data set [22] is Homo sapiens. Description: Selectivity index, ratio of EC50 for human CB1 receptor to EC50 for human CB2 receptor.
Data set [23] has as its target T1, Cannabinoid receptor 2. The experiment in a line: Agonist activity at human CB2 receptor transfected in CHO-K1 cells assessed as cAMP change. The class given is functional, cell-based.
For data set [24], the target named is T2, Cannabinoid receptor 1. The experiment in a line: Displacement of [3H]-CP55940 from human CB1 receptor expressed in HEK293 cells after 90 mins by liquid scintillation counting. The class given is cell-based.
In data set [25] the target is T1, Cannabinoid receptor 2. Description: Displacement of [3H]-CP55940 from human CB2 receptor expressed in HEK293 cells after 90 mins by liquid scintillation counting. In kind it is cell-based.
The target in data set [26] is T2, Cannabinoid receptor 1. Description: Agonist activity at human CB1 receptor assessed as inhibition of forskolin-induced cAMP production. The class given is functional.
Data set [27] has as its target T1, Cannabinoid receptor 2. Description: Agonist activity at human CB2 receptor assessed as inhibition of forskolin-induced cAMP production. The class given is functional.
Data set [28] concerns the target Transient receptor potential cation channel subfamily V member 1 (Homo sapiens, UniProt Q8NER1). The experiment in a line: Activation of human VR1 expressed in HEK293 cells assessed as stimulation of Ca2+ influx. The class given is cell-based.
Data set [29] concerns the target T4, Cannabinoid receptor 2. The experiment in a line: Agonist activity at rat CB2 receptor expressed in CHO-K1 cells assessed as inhibition of forskolin-induced cAMP accumulation. In kind it is functional, cell-based.

T2 sequence (P21554 whole entry): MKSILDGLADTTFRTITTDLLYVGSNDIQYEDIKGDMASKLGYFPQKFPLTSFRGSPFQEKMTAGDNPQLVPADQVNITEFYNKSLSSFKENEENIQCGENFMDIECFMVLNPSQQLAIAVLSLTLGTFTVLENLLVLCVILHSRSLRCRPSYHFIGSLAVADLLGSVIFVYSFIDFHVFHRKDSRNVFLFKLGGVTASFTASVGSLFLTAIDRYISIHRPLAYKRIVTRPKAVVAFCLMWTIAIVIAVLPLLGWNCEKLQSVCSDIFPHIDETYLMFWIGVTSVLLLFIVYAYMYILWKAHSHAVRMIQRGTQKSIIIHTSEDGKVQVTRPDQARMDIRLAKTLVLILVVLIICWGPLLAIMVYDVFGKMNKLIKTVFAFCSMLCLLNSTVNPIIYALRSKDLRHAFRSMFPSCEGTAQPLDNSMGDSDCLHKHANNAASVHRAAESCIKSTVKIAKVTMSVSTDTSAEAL
T3 sequence (P20272 whole entry): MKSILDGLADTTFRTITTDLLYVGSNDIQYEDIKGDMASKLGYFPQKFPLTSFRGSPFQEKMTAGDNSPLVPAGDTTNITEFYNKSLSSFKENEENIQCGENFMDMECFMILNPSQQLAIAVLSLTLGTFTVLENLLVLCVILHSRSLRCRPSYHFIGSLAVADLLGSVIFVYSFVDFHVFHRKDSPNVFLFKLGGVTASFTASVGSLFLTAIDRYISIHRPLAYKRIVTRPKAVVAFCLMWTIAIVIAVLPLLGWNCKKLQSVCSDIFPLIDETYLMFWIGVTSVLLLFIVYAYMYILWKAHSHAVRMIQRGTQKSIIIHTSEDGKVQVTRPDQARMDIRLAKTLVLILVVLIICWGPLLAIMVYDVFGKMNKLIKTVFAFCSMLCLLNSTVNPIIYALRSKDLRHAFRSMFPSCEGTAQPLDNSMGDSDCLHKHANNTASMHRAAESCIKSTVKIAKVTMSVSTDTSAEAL
T1 sequence (P34972 whole entry): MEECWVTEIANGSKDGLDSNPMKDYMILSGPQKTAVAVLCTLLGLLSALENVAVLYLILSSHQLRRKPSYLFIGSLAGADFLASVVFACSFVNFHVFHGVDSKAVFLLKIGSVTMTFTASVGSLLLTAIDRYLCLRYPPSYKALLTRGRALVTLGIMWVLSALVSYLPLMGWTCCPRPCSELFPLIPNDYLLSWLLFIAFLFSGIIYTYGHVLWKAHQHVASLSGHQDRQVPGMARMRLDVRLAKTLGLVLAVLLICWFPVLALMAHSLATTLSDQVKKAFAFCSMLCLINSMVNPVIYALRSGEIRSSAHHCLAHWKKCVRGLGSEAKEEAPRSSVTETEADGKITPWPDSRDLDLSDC
Transient receptor potential cation channel subfamily V member 1, sequence (Q8NER1 whole entry): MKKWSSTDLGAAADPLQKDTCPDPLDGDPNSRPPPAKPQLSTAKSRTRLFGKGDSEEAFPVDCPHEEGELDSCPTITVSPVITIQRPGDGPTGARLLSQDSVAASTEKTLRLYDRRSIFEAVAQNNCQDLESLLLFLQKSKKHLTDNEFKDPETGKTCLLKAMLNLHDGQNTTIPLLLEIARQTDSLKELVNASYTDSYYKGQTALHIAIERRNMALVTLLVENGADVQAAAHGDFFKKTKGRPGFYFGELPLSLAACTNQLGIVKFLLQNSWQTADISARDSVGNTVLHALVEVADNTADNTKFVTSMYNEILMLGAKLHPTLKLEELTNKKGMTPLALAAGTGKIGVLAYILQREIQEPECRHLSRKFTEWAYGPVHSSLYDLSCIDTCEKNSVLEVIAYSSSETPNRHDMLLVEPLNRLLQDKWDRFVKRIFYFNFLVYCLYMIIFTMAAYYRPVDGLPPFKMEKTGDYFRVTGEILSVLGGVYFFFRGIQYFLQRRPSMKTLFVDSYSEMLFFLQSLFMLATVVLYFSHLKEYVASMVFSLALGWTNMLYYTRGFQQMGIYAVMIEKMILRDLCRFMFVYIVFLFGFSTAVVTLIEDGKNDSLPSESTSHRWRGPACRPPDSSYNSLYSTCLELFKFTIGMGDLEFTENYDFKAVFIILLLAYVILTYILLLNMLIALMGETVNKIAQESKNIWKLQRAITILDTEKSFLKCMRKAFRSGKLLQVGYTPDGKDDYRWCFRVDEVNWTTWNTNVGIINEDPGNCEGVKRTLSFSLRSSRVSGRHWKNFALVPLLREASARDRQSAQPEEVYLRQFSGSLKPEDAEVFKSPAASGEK

A word on the AUC(0-inf): it is total exposure, with the tail of the curve extrapolated. Higher therefore signals high exposure. Usually Cmax stands for the peak of the concentration-time curve. For orientation: half-life means how long it takes for the measured level to halve. Read a high half-life as slow loss. On to `CC(C)(C)NC(=O)c1nn(-c2ccc(Cl)cc2)c2c1C1CCC2C1` (stereo unspecified), for which the AUC(0-inf) in [1] is 1550 ng·h/mL. For the same molecule, the concentration in data set [2] peaked (Cmax) at 131 ng/mL. Besides, the half-life in [3] is 7.3 h.
What is called EC50 is the midpoint of the concentration-response curve. In data set [4], `O=C(NC1(c2ccccn2)CCC1)C1=NN(c2c[n+]([O-])ccn2)C2C1C[C@@H]1C[C@H]21` (stereo partly specified) had an EC50 of 32 nM. Besides, the IC50 in data set [5] was over 50000 nM.
By Ki is commonly meant the dissociation constant of the complex between target and ligand, obtained from inhibition or displacement. For `CC(=O)Oc1cc(O[C@H](C)CCCc2ccccc2)cc2c1[C@@H]1C[C@H](O)CC[C@H]1[C@H](C)N2` [LEVONANTRADOL], in [6], the inhibition constant Ki came out at 2.9 nM.
Regarding `CCCCCc1ccc2c(c1)OC(C)(C)[C@@H]1CC=C(C)C[C@@H]21`, the Ratio Ki in data set [7] was over 312. The Ki in data set [8] was 32 nM; in [9] it was over 10000 nM.
Turning to `CC1=CC[C@@H]2[C@@H](C1)c1c(OC(=O)CCCN3CCOCC3)cc(C(C)(C)CCCCC#N)cc1OC2(C)C`, in data set [10], the Ratio Ki was 0.36. Also, the results for the Ki in data set [11] and in data set [12] were 11 nM and 4 nM, respectively.
For `CC(C)(CO)NC(=O)c1nn(-c2ccc(Cl)cc2)c2c1C1CCC2C1` (stereo unspecified), the AUC(0-inf) in data set [1] was found to be 12000 ng·h/mL. In data set [2], the Cmax turned out to be 1950 ng/mL. Moreover, in data set [3], the half-life is 4.8 h.
Turning to `CCCCC/C=C\C/C=C\C/C=C\C/C=C\CCCC(=O)NCCCl`, the Ki in data set [13] was over 2000 nM; in [15], 1.4 nM. In addition, in data set [14], the Ratio Ki is over 1430.
As to `C[C@H](NS(=O)(=O)/C=C/c1n[nH]c2c1CCCC[C@@H]2Cc1cccc(F)c1)c1ccccc1`, the results for the EC50 in data set [16] and in data set [17] were 9 nM and over 5000 nM, respectively. Further, in [10], the Ratio Ki was over 550.
With `CCCCCCC(C)(C)c1cc(OC)c([C@]2(O)CCC[C@@H](C)C2)c(OC)c1`, the Ki in data set [18] was found to be 23.1 nM; in [19], 5060 nM. Besides, the Ratio Ki in data set [20] turned out to be 220.
For the molecule `CCCCCCC(C)(C)c1cc(O)c2c(c1)OC(C)(C)[C@@H]1CC=C(OO)C[C@@H]21`, the Ratio Ki in data set [7] was 38. The Ki was determined as 0.032 nM in data set [8] and 1.2 nM in data set [9].
Consider `CCC(C)Cn1c(C(C)(C)C)nc2cc(S(=O)(=O)c3ccnc(F)c3)ccc21` (stereo unspecified), for which the EC50 is over 10000 nM in [21] and 0.26 nM in data set [23]. Also, the Ratio EC50 in data set [22] was over 38000.
As for `CCNC(=O)c1c(NC(=O)C23CC4CC(CC(C4)C2)C3)sc2c1CCOC2`, the EC50 was over 1.5 nM in data set [24] and 21 nM in [25].
Take `O=C(NC12CC3CC(CC(C3)C1)C2)c1nn(-c2ccc(Cl)c(Cl)c2)c2c1CCCC2`: the figures for the EC50 in data set [26] and in [27] were 37 nM and 2.5 nM, respectively.
Regarding `CCCCC/C=C\C/C=C\C/C=C\C/C=C\CCCC(=O)NCCO` [ANANDAMIDE], the EC50 in data set [28] was determined as 630 nM.
As for `CN1CCCC[C@H]1Cn1cc(C(=O)c2cc([N+](=O)[O-])ccc2I)c2ccccc21`, the concentration giving a half-maximal response (EC50) in [29] is 785 nM.
